Source: patent US10765732B2, “Compounds and methods for affecting cytokines” (Zivo Bioscience, Inc., priority 2013, dated 2020)

Columns and labels:
Assay type in all cases: cell-based, human
IL-17A = assay: ELISA of IL-17A secretion by cultured PBMC; conditions: PMA (with ionomycin) alone
Procedure: (§1) According to this exemplary embodiment, phyto-percolate and the flow-through/F4 were tested as they appeared in their original concentrations right off the columns, only diluted 1:20 and 1:100 as described herein. The culture of peripheral blood mononuclear cells (“PBMC”) is prepared from two vials of frozen PBMCs that were obtained from normal healthy human subjects by a commercial vendor, and were added to 2×10 ml medium and centrifuged. PBMCs were resuspended and cultured in RPMI1640/5% FBS for 24 h. (1 vial of frozen cells in 11 ml medium).
(§2) Treatment agents for this exemplary method comprise three agents: unseparated phyto-percolate (‘PAZ’), fraction 3 (‘F3’), fraction 4 (‘F4’). Treatment concentration for each was 1:20 and 1:100. […]
(§3) According to this exemplary embodiment, seeding, treatment, and detection are accomplished by the following steps. Two dishes of PBMCs were combined and the small amount of PBMCs was stained with 0.4% Trypan blue and the cell number of PBMCs was counted using known techniques.
(§4) In this embodiment, an enzyme linked immune-sorbent assay (“ELISA”) analysis of inflammatory cytokine secretion, (a protocol provided in a commercial kit for the parallel quantification of the production of human cytokines), was employed. […]

IL-2 = assay: ELISA of IL-2 secretion by cultured PBMC; conditions: PMA (with ionomycin) alone
Procedure: as §1, §2, §3, §4

GM-CSF = assay: ELISA of GM-CSF secretion by cultured PBMC; conditions: PMA (with ionomycin) alone
Procedure: as §1, §2, §3, §4

TNF-α = assay: ELISA of TNF-α secretion by cultured PBMC; conditions: PMA (with ionomycin) alone
Procedure: as §1, §2, §3, §4

IFN-γ = assay: ELISA of IFN-γ secretion by cultured PBMC; conditions: PMA (with ionomycin) alone
Procedure: as §1, §2, §3, §4

NF-κB = assay: Electrophoretic mobility shift assay (EMSA) of NF-κB DNA-binding activity in nuclear protein of cultured PBMC; conditions: TNF-α (50 ng/ml) added alone 1 h before harvesting, untreated control = 1.0
Procedure: as §1
Treatment agents for this exemplary method comprise three agents: unseparated phyto-percolate (‘PAZ’), fraction 3 (‘F3’), fraction 4 (‘F4’). Treatment concentration for each was 1:20 and 1:100. An exemplary sample preparation method for each agent by dilution is as follows: First, a 1:10 dilution is prepared by combining 0.7 ml agent (PAZ, F3, or F4)+6.3 ml RPMI1640/5% FBS to obtain a total volume of 7 ml of a 1:10 solution. […]
Analysis of the effect of phyto-percolate or fractions isolated therefrom on the DNA-binding activity of NF-κB in the nuclear protein fractions of the cultured PBMC was determined as follows in this exemplary embodiment: approximately 18.26 mL of suspended PBMC were added to approximately 18 mL of culture medium and 2 mL of this cell suspension (2,718,000 cells in 2 mL) were seeded into each 60 mm culture dish. […]

Molecule | production and secretion of IL-17A (IL-17A) | quantity of IL-2 produced (IL-2) | production and secretion of GM-CSF (GM-CSF) | production and secretion of TNF-α (TNF-α) | IFN-γ secreted (IFN-γ) | DNA-binding activity of NF-κB (relative level) (NF-κB)
CCCCCCCCCCCCCC(=O)O[C@@H]1[C@@H](C)[C@@]2(O)[C@@H](C=C(CO)C[C@]3(O)C(=O)C(C)=C[C@@H]23)[C@@H]2C(C)(C)[C@]12OC(C)=O [PMA, phorbol myristate acetate] | approximately 3 pg/100,000 cells | approximately 125 pg/100,000 cells | approximately 50 pg/100,000 cells | approximately 50 pg/100,000 cells | approximately 70 pg/100,000 cells | 
TNF-α |  |  |  |  |  | ~2.0 relative unit
